Patent US20090042820A1, “Tubulin Binding Anti Cancer Agents And Prodrugs Thereof” (Threshold Pharmaceuticals, Inc., priority 2004, published 2009)
Where two headings read alike, the source gives them in different places.

System: H460 cells
Assay: Alamar Blue antiproliferation assay, H460 cell line
Type: cell-based, human
Procedure: To determine the effect of the compounds of the present invention on cell proliferation, the antiproliferative activity of these compounds was tested in a multi-well Alamar Blue based assay (at 2 h and 3 days). Cell growth in the presence and absence of the test compound as tabulated in Table 1 was compared, as measured by a fluorescence plate reader at excitation 550 nm and emission 590 nm (see Biosource International Inc., Tech Application Notes, Use of Alamar Blue in the measurement of Cell Viability and Toxicity, Determining IC50). H460 cells (ATCC HTB-177 ([…]), 4,000 cells/well/200 μl) and LNCap cells (ATCC CRL-1740, 6,000 cells/well/200 μl) were seeded in a 96 well plate in RPMI medium (Invitrogen Corporation, Carlsbad, Calif.). After 24 hours, these plates were divided into 3 groups—Control group, 2 h treatment group and 3 day treatment group.
In the 2 h treatment group, after 2 h the cells were rinsed to remove the test compound and incubated for 3 days, followed by staining with AlamarBlue. The cells in the 3-day treatment group were incubated for 3 days, followed by staining with AlamarBlue. In the Control group, AlamarBlue was added to the plate at (i) day 0 and (ii) day 3 and measured to establish the control reading. In all the groups, the capacity of the cells to proliferate was measured 6 hours after addition of AlamarBlue by a fluorescence plate reader at excitation 550 nm and emission 590 nm.

[1] = Homo sapiens, NCI-H460, 2 h treatment, then 3 days incubation, read-out: GI50 (nM) 2 Hour
[2] = Homo sapiens, NCI-H460, 2 h treatment, then 3 days incubation, read-out: GI90 (nM) 2 Hour
[3] = Homo sapiens, NCI-H460, 72 h, 3 day treatment, read-out: GI50 (nM) 3 Days
[4] = Homo sapiens, NCI-H460, 72 h, 3 day treatment, read-out: GI90 (nM) 3 Day

Molecule COc1ccc2c(C(=O)c3cc(OC)c(OC)c(OC)c3)n[nH]c2c1 [Compound 9] has a GI50 [1] of over 1000 nM, an IC90 [2] of over 1000 nM and a GI50 [3] of 100 nM. The IC90 [4] was 316 nM.
Molecule COc1ccc2c(/C(=N/N)c3cc(OC)c(OC)c(OC)c3)n[nH]c2c1 [Compound 10] has a GI50 [1] of over 1000 nM, an IC90 [2] of over 1000 nM and a GI50 [3] of 398 nM. For the same molecule, the IC90 [4] was 1000 nM.
COc1ccc2c(/C(=N/O)c3cc(OC)c(OC)c(OC)c3)n[nH]c2c1 [Compound 11] showed a GI50 [1] of over 1000 nM, an IC90 [2] of over 1000 nM and a GI50 [3] of 631 nM. The IC90 [4] was over 1000 nM.
With COc1ccc2c(C(=O)c3cc(OC)c(OC)c(OC)c3)nn(C)c2c1 [Compound 12] the GI50 [1] was over 1000 nM, the IC90 [2] was over 1000 nM and the GI50 [3] was over 1000 nM. For the same molecule, the IC90 [4] was over 1000 nM.
With COc1ccc2c(C(=O)c3cc(OC)c(OC)c(OC)c3)n(C)nc2c1 [Compound 13] the GI50 [1] was over 1000 nM, the IC90 [2] was over 1000 nM and the GI50 [3] was over 1000 nM. It also gave an IC90 [4] of over 1000 nM.
In the case of COc1ccc2c(C(=O)c3cc(OC)c(OC)c(OC)c3)n(Cc3ccccc3)nc2c1 [Compound 17], the GI50 [1] was over 1000 nM, the IC90 [2] was over 1000 nM and the GI50 [3] was over 1000 nM. For the same molecule, the IC90 [4] was over 1000 nM.
For COc1ccc2c(c1)N=N/C2=C/c1cc(OC)c(OC)c(OC)c1 [Compound 19], the GI50 [1] was over 10000 nM, the IC90 [2] was over 1000 nM and the GI50 [3] was over 1000 nM. The IC90 [4] was over 1000 nM.
COc1ccc2c(C(=O)c3cc(OC)c(OC)c(OC)c3)nn(C(=O)c3ccccc3)c2c1 [Compound 20] was tested, and the GI50 [1] was 630 nM and the GI50 [3] was 100 nM.
COc1cc(C(=O)c2n[nH]c3c(Cl)c(OC)ccc23)cc(OC)c1OC [Compound 21] was tested, and the GI50 [1] was over 10000 nM and the GI50 [3] was 40 nM.
For COc1cc(C(=O)c2n[nH]c3c(I)c(OC)ccc23)cc(OC)c1OC [Compound 22], the GI50 [1] was over 10000 nM and the GI50 [3] was 40 nM.
COc1ccc2c(C(=O)c3cc(OC)c(OC)c(OC)c3)nn(S(=O)(=O)c3ccc([N+](=O)[O-])cc3)c2c1 [Compound 23] gave a GI50 [1] of 630 nM and a GI50 [3] of 100 nM.
Work on COc1ccc2c(C(=O)c3cc(OC)c(OC)c(OC)c3)nn(S(=O)(=O)c3ccc(N)cc3)c2c1 [Compound 24] yielded a GI50 [1] of 10000 nM and a GI50 [3] of 501 nM.
COc1ccc2c(C(=O)c3cc(OC)c(OC)c(OC)c3)nn(S(=O)(=O)c3cccc4ccccc34)c2c1 [Compound 25] gave a GI50 [1] of over 10000 nM and a GI50 [3] of 630 nM.
With COc1ccc2c(C(=O)c3cc(OC)c(OC)c(OC)c3)nn(S(=O)(=O)c3ccc4ccccc4c3)c2c1 [Compound 26] the GI50 [1] was over 10000 nM and the GI50 [3] was 630 nM.
COc1ccc2c(C(=O)c3cc(OC)c(OC)c(OC)c3)nn(P(=O)(OCc3ccccc3)OCc3ccccc3)c2c1 [Compound 27] showed a GI50 [1] of over 10000 nM and a GI50 [3] of 251 nM.
COc1ccc2c(C(=O)c3cc(OC)c(OC)c(OC)c3)nn(S(=O)(=O)c3ccc(O)cc3)c2c1 [Compound 29] gave a GI50 [1] of over 10000 nM and a GI50 [3] of 630 nM.
COc1cc(C(=O)c2n[nH]c3c(S(=O)(=O)c4ccc(OCc5ccccc5)cc4)c(OC)ccc23)cc(OC)c1OC [Compound 31] showed a GI50 [1] of over 10000 nM and a GI50 [3] of over 10000 nM.
COc1ccc2c3n(nc2c1)Cc1c(cc(OC)c(OC)c1OC)C3=O [Compound 32] showed a GI50 [1] of over 10000 nM and a GI50 [3] of over 10000 nM.
With COc1ccc2c(C(=O)c3cc(OC)c(OC)c(OC)c3)nn(S(=O)(=O)Cc3ccc([N+](=O)[O-])cc3)c2c1 [Compound 33] the GI50 [1] was over 10000 nM and the GI50 [3] was 1000 nM.
COc1ccc2c(C(=O)c3cc(OC)c(OC)c(OC)c3)nn(C(=O)Cc3ccc(OCc4ccccc4)cc3)c2c1 [Compound 34] showed a GI50 [1] of over 10000 nM and a GI50 [3] of 126 nM.
COc1cc(C(=O)c2n[nH]c3c(C#CC(C)(C)O)c(OC)ccc23)cc(OC)c1OC [Compound 36] gave a GI50 [1] of over 10000 nM and a GI50 [3] of 63 nM.
COc1cc(C(=O)c2nn(Cc3ncc([N+](=O)[O-])n3C)c3c(Br)c(OC)ccc23)cc(OC)c1OC [Compound 38] showed a GI50 [1] of over 10000 nM and a GI50 [3] of 631 nM.
Molecule COc1ccc2[nH]nc(C(=O)c3cc(OC)c(OC)c(OC)c3)c2c1 [Compound 42] has a GI50 [1] of over 1000 nM, an IC90 [2] of over 1000 nM and a GI50 [3] of over 1000 nM. For the same molecule, the IC90 [4] was over 1000 nM.
In the case of COc1cc(C(=O)c2n[nH]c3ccc(F)cc23)cc(OC)c1OC [Compound 43], the GI50 [1] was over 10000 nM, the IC90 [2] was over 1000 nM and the GI50 [3] was over 10000 nM. For the same molecule, the IC90 [4] was over 1000 nM.
COc1ccc2c(/C(=N/NC(C)=O)c3cc(OC)c(OC)c(OC)c3)n[nH]c2c1 [Compound 44] gave a GI50 [1] of over 5000 nM, an IC90 [2] of over 5000 nM and a GI50 [3] of 1580 nM. The IC90 [4] was over 5000 nM.
COc1ccc2c(C(=O)c3cc(OC)c(OC)c(OC)c3N)n[nH]c2c1 [Compound 45] was tested, and the GI50 [3] was 158 nM.
With COc1ccc2c(C(=O)c3cc(OC)c(OC)c(OC)c3)nn(S(=O)(=O)c3ccc(C)cc3)c2c1 [Compound 47] the GI50 [3] was 25 nM.
COc1ccc2c(C(=O)c3cc(OC)c(OC)c(OC)c3Br)nn(S(=O)(=O)c3ccc(C)cc3)c2c1 [Compound 48] gave a GI50 [3] of 630 nM.
For COc1ccc2c(C(=O)c3cc(OC)c(OC)c(OC)c3)nn(P(=O)(OC)OC)c2c1 [Compound 49], the GI50 [3] was 15.8 nM.
CCC(=O)n1nc(C(=O)c2cc(OC)c(OC)c(OC)c2)c2ccc(OC)cc21 [Compound 50] was tested, and the GI50 [1] was over 10000 nM and the GI50 [3] was 20 nM.
For COc1cc(C(=O)c2n[nH]c3c(C#CCNC(=O)C(F)(F)F)c(OC)ccc23)cc(OC)c1OC [Compound 52], the GI50 [1] was over 1000 nM and the GI50 [3] was 100 nM.
COc1cc(C(=O)c2n[nH]c3c(C#CCN)c(OC)ccc23)cc(OC)c1OC [Compound 53] showed a GI50 [1] of 630 nM and a GI50 [3] of 158 nM.
With COc1ccc2c(C(=O)c3cc(OC)c(OC)c(OC)c3)nn(CO)c2c1 [Compound 56] the GI50 [1] was over 10000 nM and the GI50 [3] was 50.1 nM.
With COc1cc(C(=O)c2n[nH]c3c(C(=O)O)c(OC)ccc23)cc(OC)c1OC [Compound 59] the GI50 [1] was over 1000 nM and the GI50 [3] was 794 nM.
For COc1cc(C(=O)c2n[nH]c3c(CCCCO)c(OC)ccc23)cc(OC)c1OC [Compound 61], the GI50 [1] was over 1000 nM and the GI50 [3] was over 1000 nM.
COc1ccc2c(C(=O)c3cc(OC)c(OC)c(OC)c3)nn(CC(=O)O)c2c1 [Compound 62] showed a GI50 [1] of over 1000 nM and a GI50 [3] of 630 nM.
For COc1ccc2c(C(=O)c3cc(OC)c(OC)c(OC)c3)nn(CC(N)=O)c2c1 [Compound 63], the GI50 [1] was over 1000 nM and the GI50 [3] was 630 nM.
COc1ccc2c(C(=O)c3cc(OC)c(OC)c(OC)c3)nn(CCO)c2c1 [Compound 64] showed a GI50 [1] of over 1000 nM and a GI50 [3] of 630 nM.
In the case of COc1cc(C(=O)c2n[nH]c3c(CCC(C)(C)O)c(OC)ccc23)cc(OC)c1OC [Compound 65], the GI50 [1] was over 1000 nM and the GI50 [3] was over 1000 nM.
COc1cc(C(=O)c2n[nH]c3c(C#Cc4cccc(O)c4)c(OC)ccc23)cc(OC)c1OC [Compound 69] gave a GI50 [3] of 1000 nM.
COc1cc(C(=O)c2n[nH]c3c(C#C[C@@H](C)O)c(OC)ccc23)cc(OC)c1OC [Compound 71] gave a GI50 (3 day treatment, read-out: GI50 (nM) 3 Days) of 12.5 nM.
Work on C#Cc1c(OC)ccc2c(C(=O)c3cc(OC)c(OC)c(OC)c3)nn(CC(N)=O)c12 [Compound 73] yielded a GI50 [3] of 630 nM.
C#Cc1c(OC)ccc2c(C(=O)c3cc(OC)c(OC)c(OC)c3)nn(CC(=O)O)c12 [Compound 74] gave a GI50 [3] of over 1000 nM.
In the case of C#Cc1c(OC)ccc2c(C(=O)c3cc(OC)c(OC)c(OC)c3)nn(C(=O)OCc3ccc([N+](=O)[O-])o3)c12 [Compound 75], the GI50 [3] was over 1000 nM.
COc1cc(C(=O)c2n[nH]c3c(C#CC=O)c(OC)ccc23)cc(OC)c1OC [Compound 76] showed a GI50 [3] of 79.4 nM.
Work on COc1cc2[nH]nc(C(=O)c3cc(OC)c(OC)c(OC)c3)c2cc1OC [Compound 77] yielded a GI50 [3] of over 1000 nM.
